Test results published in patent US20230348376A1 (TEIJIN PHARMA LIMITED, priority 2020, published 2023).
Like-named read-outs stand apart in the source and are kept apart here.

Legend:
[1] = Evaluation of calcium increasing action in normal mice (serum calcium); format: in vivo, mouse; details: for Serum calcium concentration: repeated oral once a day, 2 weeks, C57BL/6J mice; for Calcium concentration Fluctuation range: vs vehicle 8.9 mg/dL
Description: After acclimatizing C57BL/6J mice (7 weeks old, male) for 1 week, the mice were divided into groups of 5 mice based on the body weight, and administration of the compound or vehicle was started. The administration solution used was a compound (in ethanol) or ethanol diluted 100-fold with 0.1% Trion X-100 (SIGMA #X100-100ML)/saline, and the repeated oral administration at once a day was performed. After administration of 2 weeks, euthanasia was performed by collecting all blood under general anesthesia.

[2] = test system: rat oligodendrocyte progenitor cells; experiment: Promotive activity of rat oligodendrocyte progenitor cell differentiation-2 (immunostaining of MBP); format: cell-based; details: vitamin D derivative 2 μM, T3 30 nM, 4 days
Outline: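 Rat OPCs prepared by shaking in separation medium about 22 h at 37 °C, 200 rpm, and collecting the supernatant.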

[3] = Evaluation of brain penetration in mice (blood and brain concentration at brain Cmax); format: in vivo, mouse; details: C57BL/6J mice; for Concentration in blood at brain Cmax / Concentration in brain at brain Cmax / Concentration in blood (mean ± SD) at brain Cmax / Concentration in brain (mean ± SD) at brain Cmax: n=3; for Kp: male, C57BL/6J, mouse, brain/plasma, po
Outline: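 Male C57BL/6J mice (8 weeks, n=3) dosed orally once at 1 […] mg/kg; plasma and brain collected at 0.25, 0.5, 1, 2, 4 and 8 h. Compound extracted with acetonitrile from brain homogenate and plasma, quantified by LC/MS/MS.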

[4] = test system: mouse cuprizone model; experiment: Myelin regeneration promoting action in mouse cuprizone model (LFB staining of corpus callosum); format: in vivo; details: 4 weeks after 6 weeks cuprizone diet, untreated = 100%
Description: C57BL/6J mice (8 weeks old, male) were fed a diet containing 0.3% cuprizone (bis(cyclohexanone)oxaldihydrazone) (Research Diets, Inc. #D17042709) for 6 weeks to induce demyelination. Subsequently, the mice were divided into groups of 8 mice based on the body weight, the diet was switched to a cuprizone-free diet (Research Diets, Inc. #D10001), and administration of the test compound or vehicle was started. […] After administration of 4 weeks, the mice were euthanized, perfused with a 4% paraformaldehyde solution, and then brain sampling was performed. The brain sample obtained was embedded in paraffin to prepare a coronal section specimen at Bregma+1. The specimen was stained with Luxor Fast Blue (LFB) to visualize the myelin sheath, and images were acquired using a fluorescence microscope (KEYENCE #BZ-X710). The corpus callosum area and the LFB staining positive area in the corpus callosum of the obtained pathological specimen image were measured using an image analysis application (KEYENCE #BZ-H3C/BZ-H3XD), and the ratio (LFB staining positive area in the corpus callosum/corpus callosum area) was calculated. The intact group is a non-pathogenic group, and the […] control group were sampled after feeding the diet containing 0.3% cuprizone for 6 weeks.
In the table, the ratio of LFB staining positive area in the corpus callosum/corpus callosum area of the untreated group, fed with the cuprizone-free diet for 6 weeks, was regarded as 100%. As a result, the control group, fed with the cuprizone-containing diet for 6 weeks, decreased the ratio to 23.6%, and was confirmed to progress demyelination. The group, in which the cuprizone-containing diet was fed for 6 weeks and switched to the cuprizone-free diet, and the vehicle was administered, improved the ratio of area of LFB staining positive/area of corpus callosum to 50.1%. […] In addition, GSK239512 described in WO2013/107336 pamphlet was evaluated in the test to show the ratio of LFB staining positive area/corpus callosum area of 45.8%, in which no demyelination regeneration promoting action was shown as compared with the vehicle-administered group.

[5] = molecular target: T1, human VDR (Homo sapiens, UniProt P11473); experiment: Evaluation of VDR transcription activity in human osteoblasts (HOS cells), luciferase reporter; details: Activity (EC50, VDR transcription activity), HOS cells transfected with human VDR, human RXRα and DR3 luciferase reporter; 21 hours
T1 sequence (P11473 1-427): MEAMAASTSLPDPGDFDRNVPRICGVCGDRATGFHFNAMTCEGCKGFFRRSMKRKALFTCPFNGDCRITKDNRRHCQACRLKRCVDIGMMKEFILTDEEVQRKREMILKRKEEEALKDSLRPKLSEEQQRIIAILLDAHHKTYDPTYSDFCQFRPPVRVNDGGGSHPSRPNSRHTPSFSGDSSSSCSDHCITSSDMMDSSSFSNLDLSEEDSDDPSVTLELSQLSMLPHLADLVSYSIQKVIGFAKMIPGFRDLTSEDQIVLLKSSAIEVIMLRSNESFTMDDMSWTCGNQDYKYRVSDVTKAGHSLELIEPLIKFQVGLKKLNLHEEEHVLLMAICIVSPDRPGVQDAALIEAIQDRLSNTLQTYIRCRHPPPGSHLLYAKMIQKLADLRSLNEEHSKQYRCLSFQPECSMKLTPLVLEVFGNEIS
T1 sequence (P19793 1-462 partner): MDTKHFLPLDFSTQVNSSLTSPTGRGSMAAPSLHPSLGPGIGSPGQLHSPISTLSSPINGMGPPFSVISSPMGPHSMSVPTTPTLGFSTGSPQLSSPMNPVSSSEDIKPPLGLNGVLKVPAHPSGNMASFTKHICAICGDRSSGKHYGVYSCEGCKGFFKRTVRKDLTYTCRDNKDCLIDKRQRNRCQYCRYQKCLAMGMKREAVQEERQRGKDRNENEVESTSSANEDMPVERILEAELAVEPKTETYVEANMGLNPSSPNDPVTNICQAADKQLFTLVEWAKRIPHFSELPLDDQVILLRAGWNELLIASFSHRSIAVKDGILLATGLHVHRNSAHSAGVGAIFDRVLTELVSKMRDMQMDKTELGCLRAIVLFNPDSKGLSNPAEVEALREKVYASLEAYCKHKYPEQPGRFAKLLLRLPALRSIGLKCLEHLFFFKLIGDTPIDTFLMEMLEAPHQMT

[6] = test system: rat oligodendrocyte progenitor cells; experiment: Promotive activity of rat oligodendrocyte progenitor cell differentiation-1 (MBP gene expression, mRNA); format: cell-based; details: 4 days
Outline: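 Primary OPCs from 1-day-old SD rat forebrain, isolated by shaking off mixed glial cultures and seeded at 2×10^3 cells/well in B27/CNTF (10 ng/mL) differentiation medium with compound. MBP mRNA measured by one-step TaqMan real-time PCR and expressed as MBP/β-actin ratio.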

[7] = 0.2 mg/kg, 0.2 mg/kg single oral dose, read-out: Concentration ratio in brain/in blood at brain Cmax
[8] = 1 mg/kg, 1 mg/kg single oral dose, read-out: Concentration in brain/in blood ratio at brain Cmax

SMILES	Serum calcium concentration ([1]; 20 μg/kg)	Calcium concentration Fluctuation range ([1]; 20 μg/kg)	Serum calcium concentration ([1]; 60 μg/kg)	Calcium concentration Fluctuation range ([1]; 60 μg/kg)	Serum calcium concentration ([1]; 200 μg/kg)	Calcium concentration Fluctuation range ([1]; 200 μg/kg)	Concentration in blood at brain Cmax ([3]; 0.2 mg/kg single oral dose)	Concentration in brain at brain Cmax ([3]; 0.2 mg/kg single oral dose)	Kp [3, 7]	Concentration in blood (mean ± SD) at brain Cmax ([3]; 1 mg/kg single oral dose)	Concentration in brain (mean ± SD) at brain Cmax ([3]; 1 mg/kg single oral dose)	Kp [3, 8]	other results
C[C@H](CN1CC[C@@H](CC(F)F)C1)[C@H]1CC[C@H]2/C(=C/C=C3C[C@@H](O)C[C@H](O)C3)CCC[C@]12C [Compound B043, (1R,3R)-5-(2-((1R,3aS,7aR,E)-1-((S)-1-((S)-3-(2,2-difluoroethyl)pyrrolidin-1-yl)propan-2-yl)-7a-methyloctahydro-4H-inden-4-ylidene)ethylidene)cyclohexane-1,3-diol]										74 ± 1 nM	80 ± 9 pmol/g	1.08	Ratio (%): area of LFB staining positive/area of corpus callosum, mean ([4]; 2 μg/kg oral once a day): 84.9%; EC50 [5]: 10 to 100 nM
O=C1CCCN1c1ccc(Oc2ccc3c(c2)CCN(C2CCC2)CC3)nc1 [GSK239512, reference compound]													Ratio (%): area of LFB staining positive/area of corpus callosum, mean ([4]; 10 mg/kg oral once a day): 45.8%; enhancement in the MBP gene expression compared with the wells added with DMSO ([6]; 1 μM): 1.8 times; activation at 1 µM ([6]; Rattus norvegicus, Oligodendrocyte progenitor cell, 96 h, read-out: promotive activity at T3 base (MBP gene expression; DMSO 0%, T3 100%), MBP/β actin mRNA): 18%

Now from value to compound, other results behind:

Serum calcium concentration ([1]; 20 μg/kg)	Calcium concentration Fluctuation range ([1]; 20 μg/kg)	Serum calcium concentration ([1]; 60 μg/kg)	Calcium concentration Fluctuation range ([1]; 60 μg/kg)	Serum calcium concentration ([1]; 200 μg/kg)	Calcium concentration Fluctuation range ([1]; 200 μg/kg)	Concentration in blood at brain Cmax ([3]; 0.2 mg/kg single oral dose)	Concentration in brain at brain Cmax ([3]; 0.2 mg/kg single oral dose)	Kp [3, 7]	Concentration in blood (mean ± SD) at brain Cmax ([3]; 1 mg/kg single oral dose)	Concentration in brain (mean ± SD) at brain Cmax ([3]; 1 mg/kg single oral dose)	Kp [3, 8]	SMILES	other results
8.9 mg/dL	0 mg/dL	8.8 mg/dL	-0.1 mg/dL	9.0 mg/dL	0.1 mg/dL	72.2 ± 10.4 nM	171.2 ± 37.4 pmol/g	2.35				C[C@H](CN1CCOC[C@@H]1C)[C@H]1CC[C@H]2/C(=C/C=C3C[C@@H](O)C[C@H](O)C3)CCC[C@]12C [Compound G004, (1R,3R)-5-(2-((1R,3aS,7aR,E)-7a-methyl-1-((S)-1-((S)-3-methylmorpholino)propan-2-yl)octahydro-4H-inden-4-ylidene)ethylidene)cyclohexane-1,3-diol]	Mean (number of MBP-positive cells/number of Hoechst33342-positive cells) ([2]; Test 3): 0.27
8.9 mg/dL	0 mg/dL	8.9 mg/dL	0 mg/dL	8.6 mg/dL	-0.3 mg/dL	58.9 ± 0.5 nM	137.8 ± 11.5 pmol/g	2.38				C[C@H](CN1CCOCC1(C)C)[C@H]1CC[C@H]2/C(=C/C=C3C[C@@H](O)C[C@H](O)C3)CCC[C@]12C [Compound G006, (1R,3R)-5-(2-((1R,3aS,7aR,E)-1-((S)-1-(3,3-dimethylmorpholino)propan-2-yl)-7a-methyloctahydro-4H-inden-4-ylidene)ethylidene)cyclohexane-1,3-diol]	Mean (number of MBP-positive cells/number of Hoechst33342-positive cells) ([2]; Test 4): 0.50
									251 ± 9 nM	562 ± 50 pmol/g	2.24	C[C@H](CN1CC[C@@H](C(C)(F)F)C1)[C@H]1CC[C@H]2/C(=C/C=C3C[C@@H](O)C[C@H](O)C3)CCC[C@]12C [Compound B034, (1R,3R)-5-(2-((1R,3aS,7aR,E)-1-((S)-1-((R)-3-(1,1-difluoroethyl)pyrrolidin-1-yl)propan-2-yl)-7a-methyloctahydro-4H-inden-4-ylidene)ethylidene)cyclohexane-1,3-diol]	Ratio (%): area of LFB staining positive/area of corpus callosum, mean ([4]; 6 μg/kg oral once a day): 88.1%; Mean (number of MBP-positive cells/number of Hoechst33342-positive cells) ([2]; Test 1): 0.57
